Active and inactive are the calls of the source. The calls are words filed in the database; no cut-off is given here.
Columns and labels:
Homo sapiens [1] = species: Homo sapiens; assay: Inhibition of human ChoK activity assessed as inhibition of incorporation of [14C] from methyl[14C]choline into phosphocholine at 10 uM after 20 mins by scintillation counting
Homo sapiens [2] = species: Homo sapiens; assay: Inhibition of human ChoK activity assessed as inhibition of incorporation of [14C] from methyl[14C]choline into phosphocholine at 50 uM after 20 mins by scintillation counting
HepG2 [3] = assay: Antiproliferative activity against human HepG2 cells at 50 uM after 24 hrs by crystal violet-staining assay; assay type: functional
HepG2 [4] = assay: Antiproliferative activity against human HepG2 cells at 10 uM after 24 hrs by crystal violet-staining assay; assay type: functional
HepG2 [5] = assay: Antiproliferative activity against human HepG2 cells at 1 uM after 24 hrs by crystal violet-staining assay; assay type: functional
HepG2 [6] = assay: Antiproliferative activity against human HepG2 cells at 5 uM after 24 hrs by crystal violet-staining assay; assay type: functional
HepG2 [7] = assay: Cytotoxicity against human HepG2 cells at 10 uM after 24 hrs by crystal violet-staining assay; assay type: cell-based; conditions: hepg2, 24 h
HepG2 [8] = assay: Cytotoxicity against human HepG2 cells at 50 uM after 24 hrs by crystal violet-staining assay; assay type: cell-based; conditions: hepg2, 24 h
[9] = Inhibition of human ChoK activity assessed as inhibition of incorporation of [14C] from methyl[14C]choline into phosphocholine after 20 mins by scintillation counting

| inhibition (Homo sapiens [1]) | inhibition (Homo sapiens [2]) | IC50 [9] [µM] | Structure (SMILES) | Activity (HepG2 [3]) | Activity (HepG2 [4]) | Activity (HepG2 [5]) | Activity (HepG2 [6]) | Activity (HepG2 [7]) | Activity (HepG2 [8]) |
| --- | --- | --- | --- | --- | --- | --- | --- | --- | --- |
| inactive | 41.3% |  | Oc1cccc(NCc2ccc(C[n+]3ccc(N4CCCC4)cc3)cc2)c1.[Br-] | 8.53% | 9.54% | 2.91% | 13.43% |  |  |
| inactive | 28.2% |  | Oc1cccc(NCc2ccc(-c3ccc(C[n+]4ccc(N5CCCC5)cc4)cc3)cc2)c1.[Br-] |  |  | 48.52% | 52.99% | Toxic | Toxic |
| 27.5% | 52.4% |  | CN(C)c1cc[n+](Cc2ccc(CNc3cccc(O)c3)cc2)cc1.[Br-] | 54.51% | 24.38% | 7.74% | 13.01% |  |  |
| inactive | 18% |  | Oc1cccc(NCc2ccc(CCCCc3ccc(C[n+]4ccc(N5CCCC5)cc4)cc3)cc2)c1.[Br-] |  |  | inactive | 48.96% | Toxic | Toxic |
| 3.8% | 12.9% |  | Nc1cccc(OCc2ccc(C[n+]3ccc(N4CCCC4)cc3)cc2)c1 | inactive | inactive | inactive | inactive |  |  |
| inactive | 13.6% |  | Oc1cccc(NCc2ccc(CCc3ccc(C[n+]4ccc(N5CCCC5)cc4)cc3)cc2)c1.[Br-] |  |  | 11.19% | 67.39% | Toxic | Toxic |

The remaining lines, values behind:

| Structure (SMILES) | inhibition (Homo sapiens [1]) | inhibition (Homo sapiens [2]) | IC50 [9] [µM] | Activity (HepG2 [3]) | Activity (HepG2 [4]) | Activity (HepG2 [5]) | Activity (HepG2 [6]) | Activity (HepG2 [7]) | Activity (HepG2 [8]) |
| --- | --- | --- | --- | --- | --- | --- | --- | --- | --- |
| CN(C)c1cc[n+](Cc2ccc(-c3ccc(Cn4cnc(N)c5ncnc4-5)cc3)cc2)cc1.[Br-] | 62.3% | 71.4% |  | 7% | 10% |  |  |  |  |
| Nc1cccc(OCc2ccc(CCCCc3ccc(C[n+]4ccc(N5CCCC5)cc4)cc3)cc2)c1.[Br-] | inactive | 21.6% |  |  |  | 57.69% | 83.21% | Toxic | Toxic |
| Nc1cccc(OCc2ccc(-c3ccc(C[n+]4ccc(N5CCCC5)cc4)cc3)cc2)c1.[Br-] | inactive | 20.8% |  |  |  | 40.52% | 57.24% | Toxic | Toxic |
| Nc1cccc(OCc2ccc(CCc3ccc(C[n+]4ccc(N5CCCC5)cc4)cc3)cc2)c1.[Br-] | inactive | inactive |  |  |  | 55.37% | 76.04% | Toxic | Toxic |
| CN(C)c1cc[n+](Cc2ccc(CCCCc3ccc(Cn4cnc5c(N)ncnc54)cc3)cc2)cc1.[Br-] | 66.7% | 89.7% |  | 45.5% | 10.2% |  |  |  |  |
| CN(C)c1cc[n+](Cc2ccc(CCCCc3ccc(COc4cccc(N)c4)cc3)cc2)cc1.[Br-] | inactive | inactive |  | 46.67% | 22.68% | 10.14% | 18.32% |  |  |
| CN(C)c1cc[n+](Cc2ccc(COc3cccc(N)c3)cc2)cc1.[Br-] | 14.8% | 37.7% |  | 22.48% | inactive | inactive | inactive |  |  |
| CN(C)c1cc[n+](Cc2ccc(-c3ccc(CNc4cccc(O)c4)cc3)cc2)cc1.[Br-] | 54.2% | 66.2% | 7.89 | 24.4% | 9.86% | inactive | inactive |  |  |
| CN(C)c1cc[n+](Cc2ccc(CCc3ccc(CNc4cccc(O)c4)cc3)cc2)cc1.[Br-] | inactive | 39.5% |  | 73.4% | 34.1% | 5.56% | 18.43% |  |  |
| CN(C)c1cc[n+](Cc2ccc(CCCCc3ccc(CNc4cccc(O)c4)cc3)cc2)cc1.[Br-] | 3.8% | 12.9% |  | 71.1% | 30.86% | 4.58% | 13.09% |  |  |
| CN(C)c1cc[n+](Cc2ccc(CCc3ccc(COc4cccc(N)c4)cc3)cc2)cc1.[Br-] | inactive | 21.9% |  | 59.54% | 30.53% | 7.42% | 6.98% |  |  |
| CN(C)c1cc[n+](Cc2ccc(-c3ccc(COc4cccc(N)c4)cc3)cc2)cc1.[Br-] | 54.4% | 79.8% | 6.37 |  | 24.4% | 8.5% | 16.23% |  | Toxic |
